From patent US7915405B2, “2,4-disubstituted-5-aminocarbonyl-1,3-thiazole derivatives for therapeutic agent of antiinflammatory disease, method thereof for preparation, therapeutic agent for antiinflammatory disease induced by SPC activity containing the same” (Korea Research Institute of Chemical Technology, priority 2008, dated 2011)
Where two headings read alike, the source gives them in different places.

Columns and labels:
NIH 3T3 cells = assay: Control of cellular division and proliferation induced by SPC ([3H]-thimidine incorporation); format: cell-based; conditions: for IC50: compound 0.001-1 μM 30 minutes, then SPC 7 μM, 24 hours, read-out: antagonistic effect on SPC IC50
Protocol: Treatment of cells with sphingosylphosphorylcholine (SPC) can induce excessive cellular division and proliferation, thus causing pathological skin conditions [Desai, Biochem. Biophys. […] Accordingly, the compounds prepared in the above Examples were tested for an effect on cellular division and proliferation induced by SPC.
First, 1×10^5 (usually 1×10^4˜10^5) NIH 3T3 cells (American Type Culture Collection, Manassas, Va., USA) were dispensed and cultured on a culture plate, and then cultured in RPMI medium containing no fetal bovine serum for 24 hours to achieve serum starvation. The cells were treated with the compounds prepared in the above Examples, and FTY720, a sphingosine-1-phosphate (S1P) agonist, at concentrations of 0.001 μM, 0.01 μM, 0.1 μM and 1 μM, and were incubated for 30 minutes. Then, SPC (Biomol, Plymouth Meeting, Pa., USA) was added thereto at a concentration of 7 μM, and the cells were incubated at 37° C. for 24 hours. […] Proliferation %=(group treated with test drug−group not treated with SPC)/(group treated with SPC alone−group not treated with SPC)×100 [Equation 1]

[1] = test system: TPA-induced inflammation model; assay: Control of inflammatory reaction in mouse TPA-induced inflammation model (ear weight and MPO activity); format: in vivo; conditions: ICR mice; for Inhibition (%) of inflammatory reaction (ear edema, ear weight) / Inhibition (%) (MPO inhibition): 0.3% in acetone, 20 μl on the ear at 1 hour and 6 hours after TPA; for Inhibition (%) of inflammatory reaction (ear edema, ear weight): measured at 24 hours; for Inhibition (%) (MPO inhibition): value in brackets, MPO activity of ear at 24 hours
Protocol: In order to examine an inhibitory effect on inflammatory reactions, the following test was carried out using tetradecanoyl phorbol acetate (hereinafter referred to as “TPA”)-induced inflammation model.
The TPA-induced inflammation model was a test method which has been widely used to test inflammatory reaction mechanisms and the effect of inhibitory substances [De Young L M et al., Agents and Actions, 1989, 26, 335-341]. When TPA which is a substance causing an inflammatory reaction is applied to the ear of a test subject, erythema and edema occur. Such inflammatory reactions are measurable through the increase in the activity of myeloperoxidase (MPO) which is essential for bacterial invasion into white blood cells.
Forty 6-week-old ICR mice were prepared, and 20 μl of a TPA solution (Sigma Aldrich Korea) obtained by dissolving TPA in acetone at a concentration of 125 μg/ml was applied to the left ear of each animal. At 1 hour after the application of TPA, 20 μl of each of acetone, the compounds of Examples dissolved in acetone at a concentration of 0.3%, and hydrocortisone (Sigma Aldrich Korea) dissolved in acetone at a concentration of 0.3% was applied to the TPA-applied site, and at 6 hours after the application of TPA, it was applied again to the same site in the same amount (20 μl). At 24 hours after the application of TPA, the mice were sacrificed by cervical dislocation, and the left ear was collected in a given width and measured for weight and MPO activity. Inhibition % of inflammatory reactions was calculated according to the following equation 3, and the results are shown in Table 4 below. Inhibition %=(group treated with TPA alone−group treated with test drug)/(group treated with TPA alone−group not treated with TPA)×100 [Equation 3]

[2] = test system: human umbilical vein endothelial cells (HUVECs); assay: Inhibitory effect on chemotactic cell migration induced by SPC (Boyden chamber analysis); format: cell-based; conditions: HUVEC
Text: Recently, it was reported that SPC plays an important role in chemotactic cell migration, similar to vascular endothelial cell growth (VEGF) [Boguslawski et al, Biochem Biophys Res Commun., 2000, 272, 603-609]. The phenomenon in which cells migrate in a living body by special cytokines or kemokines is a key step in a process, such as migration of immune cells to sites of inflammation, or angiogenesis caused by endothelial cells. Accordingly, the effect of the compounds prepared in the above Examples on chemotactic cell migration induced by SPC was tested by Boyden chamber analysis.
First, a 25×80 mm polycarbonate membrane (Neuro Probe, Inc.) having 8 μm pores was overnight coated by immersion in a solution containing 0.01% gelatin and 0.1% acetic acid solution and was naturally dried at room temperature.
Meanwhile, human umbilical vein endothelial cells (HUVECs) cultured in complete EBM-2 medium containing 2% fetal bovine serum were incubated in EBM-2 medium (Cambrex, Catalog No. CC-3121) containing no fetal bovine serum for 4 hours to achieve serum starvation, and then the cells were harvested with trypsin/EDTA solution. The HUVEC cells were suspended in EBM-2 medium containing 0.1% fetal bovine serum. Then, the cells were dispensed in a silicon-coated Eppendorf tube, the compound of Example 1-31 as a test drug was added to the cells in amounts of 0.1, 1 and 10 μg/ml, and the cells were treated with the compound at 37° C. for 30 minutes. 27 μL of EBM-2 medium containing 10 μM SPC or EBM-2 medium containing no SPC was dispensed in each well of the lower chamber of the Boyden chamber, and a gelatin-coated membrane was placed in the lower chamber, such that the glossy surface of the membrane was faced downward. A gasket was placed on the membrane, and then the upper chamber was assembled. 5×10^4 (56 μl) HUVEC cells treated with the drug were dispensed in each well of the upper chamber and incubated in a CO2 incubator at 37° C. for 8 hours. The membrane was separated, stained with Diff-Quik dye (Sysmex Corporation), washed with deionized water, and then attached to a slide glass, such that the glossy surface was faced downward. The cells attached onto the membrane were carefully wiped with kimwipes or cotton swabs, and then each well was photographed in five fields (200× magnification), and the cells were counted. Inhibition of chemotactic cell migration was calculated according to the following equation 2, and the results are shown in Table 3 below. Inhibition %=(group treated with SPC alone−group treated with test drug)/(group treated with SPC alone−group not treated with SPC)×100 [Equation 2]

[3] = Mus musculus, NIH3T3, serum starved

Row | SMILES | Inhibition (%) of inflammatory reaction (ear edema, ear weight) [1] [%] | IC50 (NIH 3T3 cells; serum starved) [nM] | further results
1 | CC(C)(C)C(=O)Nc1nc(N2CCCCC2)sc1C(=O)N1CCOCC1 [Example 1-1] | 21 | – | IC50 (NIH 3T3 cells; [3]): 932 nM
2 | CC(C)(C)C(=O)Nc1nc(N2CCN(c3ccccc3)CC2)sc1C(=O)N1CCOCC1 [Example 1-5] | 30 | 189 | –
3 | CC(C)(C)C(=O)Nc1nc(NCCN2CCCCC2)sc1C(=O)N1CCCCC1 [Example 1-30] | 59 | 878 | –
4 | CC(C)(C)C(=O)Nc1nc(N2CCC(N3CCOCC3)CC2)sc1C(=O)N1CCCCC1 [Example 1-37] | 44 | 89 | Inhibition (%) (MPO inhibition) [1]: 47%
5 | COc1ccc(CNc2nc(NC(=O)C(C)(C)C)c(C(=O)N3CCOCC3)s2)cc1 [Example 1-11] | 49 | 93.7 | –
6 | CCCCC(=O)Nc1nc(N2CCC(N3CCOCC3)CC2)sc1C(=O)N1CCOCC1 [Example 1-21] | 52 | 57 | –
7 | CCCCC(=O)Nc1nc(NCc2ccccc2)sc1C(=O)N1CCCCC1 [Example 1-41] | 51 | 9.8 | –
8 | CCCCC(=O)Nc1nc(N2CCC(N3CCCC3)CC2)sc1C(=O)N1CCCCC1 [Example 1-44] | 57 | 88.3 | –
9 | Cc1ccccc1N1CCN(c2nc(NC(=O)C(C)(C)C)c(C(=O)N3CCCCC3)s2)CC1 [Example 1-32] | 43 | 45 | –
10 | CC(C)(C)C(=O)Nc1nc(NCc2ccccc2)sc1C(=O)N1CCOCC1 [Example 1-10] | 68 | 68 | –
11 | CC(C)(C)C(=O)Nc1nc(N2CCN(c3ccccc3F)CC2)sc1C(=O)N1CCCCC1 [Example 1-33] | 47 | 10.9 | –
12 | COc1ccccc1N1CCN(c2nc(NC(=O)C(C)(C)C)c(C(=O)N3CCCC3)s2)CC1 [Example 1-49] | 38 | 178 | –
13 | COc1ccccc1N1CCN(c2nc(NC(=O)C(C)(C)C)c(C(=O)N3CCCCC3)s2)CC1 [Example 1-31, N-{2-[4-(2-methoxyphenyl)-piperazin-1-yl]-5-(piperidine-1-carbonyl)thiazol-4-yl}pivalamide] | 84 | – | IC50 (NIH 3T3 cells; [3]): 5.42 nM; inhibition of cellular division and proliferation induced by SPC (in words) (NIH 3T3 cells; SPC 7 μM): dose-dependently inhibited; inhibition of chemotactic cell migration caused by SPC (in words) ([2]; Boyden chamber): strongly inhibited; inhibition at 0.1 µg/mL ([2]; Homo sapiens, 0.1 μg/ml, 10 μM SPC, 8 hours): 44%; inhibition at 1 µg/mL ([2]; Homo sapiens, 1 μg/ml, 10 μM SPC, 8 hours): 58%; inhibition at 10 µg/mL ([2]; Homo sapiens, 10 μg/ml, 10 μM SPC, 8 hours): 69%; inhibition of TPA-induced inflammatory reactions, ear edema and MPO activity (in words) ([1]; 0.3% topical, compared with hydrocortisone): significantly inhibited; Inhibition (%) (MPO inhibition) [1]: 78%
